Target: T1, ANT-(4′) (Staphylococcus aureus, UniProt P05057)
T1 construct: gene knt; pET plasmid pET-ANT-(4′) in E. coli BL21 (printed for MIC strains)
Assay: thermal shift, SYPRO Orange
Type: binding
Conditions: Tris 10 mM pH 8.0, 0.2 mM NaCl; protein 4.4 µM and ligand 10 µM solutions mixed; blank Tm 58 ± 0.1
From the text: thermal shift, SYPRO Orange on ANT-(4′)

T1 sequence (P05057 whole entry): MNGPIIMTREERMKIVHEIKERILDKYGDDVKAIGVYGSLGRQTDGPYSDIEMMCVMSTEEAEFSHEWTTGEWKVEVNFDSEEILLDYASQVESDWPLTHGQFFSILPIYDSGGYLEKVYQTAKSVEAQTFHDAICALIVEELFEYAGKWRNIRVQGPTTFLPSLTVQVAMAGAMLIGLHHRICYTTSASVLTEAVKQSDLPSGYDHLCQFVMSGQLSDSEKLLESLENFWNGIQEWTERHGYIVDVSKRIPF

For `NC[C@H]1O[C@H](O[C@H]2[C@H](O)[C@@H](O)[C@H](N)C[C@@H]2N)[C@H](N)[C@@H](O)[C@@H]1O` [compound 4, 4-O-(2,6-di-Deoxy-α-D-2,6-di-amine-glucopyranosyl)-2-deoxy-streptamine], the 4 was 61 ± 0.1 °C.
In the case of `NC[C@H]1O[C@H](O[C@H]2[C@H](O)[C@@H](O[C@H]3O[C@H](CO)[C@@H](O)[C@H](N)[C@H]3O)[C@H](N)C[C@@H]2N)[C@H](O)[C@@H](O)[C@@H]1O` [compound 1, Kanamycin A], the 1 is reported as 61.5 ± 0.1 °C.

Source: publication PMC6783941, “Synthesis of Ring II/III Fragment of Kanamycin: A New Minimum Structural Motif for Aminoglycoside Recognition” (Antibiotics, 2019)
